# From ChEMBL document CHEMBL5620391 (Eur J Med Chem, 2023)
# Columns and labels:
# [1] = molecular target: Serine/threonine-protein kinase mTOR (Homo sapiens, UniProt P42345); assay: Inhibition of N-terminal FLAG-tagged recombinant human mTOR (1362 to end residues) using ULight-4E-BP1 (Thr37/46) peptide as substrate incubated for 30 mins in presence of ATP by LANCE ultra assay
# [2] = molecular target: T1, Phosphatidylinositol 4,5-bisphosphate 3-kinase catalytic subunit delta isoform (Homo sapiens, UniProt O00329); assay: Inhibition of PI3Kdelta (unknown origin) using PIP2 as substrate incubated for 60 mins in presence of ATP by ADP-Glo assay
# T1 sequence (O00329 whole entry): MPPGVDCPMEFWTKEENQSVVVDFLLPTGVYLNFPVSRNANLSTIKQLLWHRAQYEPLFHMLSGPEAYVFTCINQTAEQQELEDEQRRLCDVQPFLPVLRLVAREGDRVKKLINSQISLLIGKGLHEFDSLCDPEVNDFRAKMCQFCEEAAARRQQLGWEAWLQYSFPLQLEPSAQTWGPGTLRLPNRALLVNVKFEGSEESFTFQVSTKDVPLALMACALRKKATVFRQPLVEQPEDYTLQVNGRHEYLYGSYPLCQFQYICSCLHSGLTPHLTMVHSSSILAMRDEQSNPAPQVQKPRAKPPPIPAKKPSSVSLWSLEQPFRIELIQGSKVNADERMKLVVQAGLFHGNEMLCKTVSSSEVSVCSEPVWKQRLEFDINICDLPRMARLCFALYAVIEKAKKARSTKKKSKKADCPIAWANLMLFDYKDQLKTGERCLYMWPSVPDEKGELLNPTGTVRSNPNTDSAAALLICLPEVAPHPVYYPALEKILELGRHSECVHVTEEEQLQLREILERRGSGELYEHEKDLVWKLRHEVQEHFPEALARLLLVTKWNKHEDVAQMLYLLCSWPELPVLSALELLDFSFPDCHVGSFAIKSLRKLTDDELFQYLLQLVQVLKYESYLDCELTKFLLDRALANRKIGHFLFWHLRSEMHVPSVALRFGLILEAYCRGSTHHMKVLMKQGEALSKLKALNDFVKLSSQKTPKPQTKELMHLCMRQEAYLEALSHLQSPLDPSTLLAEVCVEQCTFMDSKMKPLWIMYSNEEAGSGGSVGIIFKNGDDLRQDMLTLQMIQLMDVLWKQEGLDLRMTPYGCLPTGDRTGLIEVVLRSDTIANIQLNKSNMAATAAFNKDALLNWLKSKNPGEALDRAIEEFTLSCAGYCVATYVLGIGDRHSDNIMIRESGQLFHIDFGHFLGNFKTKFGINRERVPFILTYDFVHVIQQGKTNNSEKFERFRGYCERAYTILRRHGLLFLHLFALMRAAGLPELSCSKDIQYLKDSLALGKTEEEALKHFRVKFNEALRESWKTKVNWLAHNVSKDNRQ
# [3] = molecular target: Phosphatidylinositol 4,5-bisphosphate 3-kinase catalytic subunit alpha isoform (Homo sapiens, UniProt P42336); assay: Inhibition of PI3Kalpha (unknown origin) using PIP2 as substrate incubated for 60 mins in presence of ATP by ADP-Glo assay
# [4] = molecular target: Phosphatidylinositol 4,5-bisphosphate 3-kinase catalytic subunit beta isoform (Homo sapiens, UniProt P42338); assay: Inhibition of PI3Kbeta (unknown origin) using PIP2 as substrate incubated for 60 mins in presence of ATP by ADP-Glo assay
# [5] = molecular target: Phosphatidylinositol 4,5-bisphosphate 3-kinase catalytic subunit gamma isoform (Homo sapiens, UniProt P48736); assay: Inhibition of PI3Kgamma (unknown origin) using PIP2 as substrate incubated for 60 mins in presence of ATP by ADP-Glo assay
# HL-60 [6] = assay: Induction of apoptosis in human HL-60 cells assessed as viable cells at 0.25 uM incubated for 48 hrs by Annexin V-FITC/PI staining based flow cytometry (reference value: 97.4 %); assay type: functional; conditions: read-out: Activity
# HL-60 [7] = assay: Induction of apoptosis in human HL-60 cells assessed as viable cells at 0.5 uM incubated for 48 hrs by Annexin V-FITC/PI staining based flow cytometry (reference value: 97.4 %); assay type: functional; conditions: read-out: Activity
# HL-60 [8] = assay: Induction of apoptosis in human HL-60 cells assessed as viable cells at 1 uM incubated for 48 hrs by Annexin V-FITC/PI staining based flow cytometry (reference value: 97.4 %); assay type: functional; conditions: read-out: Activity
# [9] = Half life in fasted Sprague-Dawley rat at 2 mg/kg, iv measured for 24 hrs by LC-MS/MS analysis; assay type: ADME, organism-based; conditions: in vivo
# [10] = Clearance in fasted Sprague-Dawley rat at 2 mg/kg, iv measured for 24 hrs by LC-MS/MS analysis; assay type: ADME, organism-based; conditions: in vivo
# [11] = Apparent volume of distribution in fasted Sprague-Dawley rat at 2 mg/kg, iv measured for 24 hrs by LC-MS/MS analysis; assay type: ADME, organism-based; conditions: in vivo, read-out: Vz
# [12] = AUC (0 to t) in fasted Sprague-Dawley rat at 2 mg/kg, iv measured for 24 hrs by LC-MS/MS analysis; assay type: ADME, organism-based; conditions: in vivo
# [13] = AUC (0 to infinity) in fasted Sprague-Dawley rat at 2 mg/kg, iv measured for 24 hrs by LC-MS/MS analysis; assay type: ADME, organism-based; conditions: in vivo
# [14] = MRT (infinity) in fasted Sprague-Dawley rat at 2 mg/kg, iv measured for 24 hrs by LC-MS/MS analysis; assay type: ADME, organism-based; conditions: in vivo
# [15] = Half life in fasted Sprague-Dawley rat at 10 mg/kg, po measured for 24 hrs by LC-MS/MS analysis; assay type: ADME, organism-based; conditions: in vivo
# [16] = Tmax in fasted Sprague-Dawley rat at 10 mg/kg, po measured for 24 hrs by LC-MS/MS analysis; assay type: ADME, organism-based; conditions: in vivo
# [17] = Cmax in fasted Sprague-Dawley rat at 10 mg/kg, po measured for 24 hrs by LC-MS/MS analysis; assay type: ADME, organism-based; conditions: in vivo
# [18] = AUC (0 to t) in fasted Sprague-Dawley rat at 10 mg/kg, po measured for 24 hrs by LC-MS/MS analysis; assay type: ADME, organism-based; conditions: in vivo
# [19] = AUC (0 to infinity) in fasted Sprague-Dawley rat at 10 mg/kg, po measured for 24 hrs by LC-MS/MS analysis; assay type: ADME, organism-based; conditions: in vivo
# [20] = Oral bioavailability in fasted Sprague-Dawley rat at 10 mg/kg measured for 24 hrs by LC-MS/MS analysis; assay type: ADME, organism-based; conditions: in vivo
# [21] = Toxicity in nude BALB/c mouse xenografted with human HL-60 cells assessed as body weight change at 5 to 10 mg/kg, ip administered for 21 days consecutively; assay type: organism-based; conditions: in vivo, 504 h, dose 5-10 mg/kg, time 21 day
# [22] = Toxicity in nude BALB/c mouse xenografted with human HL-60 cells assessed as toxic sign in heart at 5 to 10 mg/kg, ip administered for 21 days consecutively by H and E staining based analysis; assay type: organism-based; conditions: in vivo, 504 h, dose 5-10 mg/kg, time 21 day
# [23] = Toxicity in nude BALB/c mouse xenografted with human HL-60 cells assessed as toxic sign in liver at 5 to 10 mg/kg, ip administered for 21 days consecutively by H and E staining based analysis; assay type: organism-based; conditions: in vivo, 504 h, dose 5-10 mg/kg, time 21 day
# [24] = Toxicity in nude BALB/c mouse xenografted with human HL-60 cells assessed as toxic sign in spleen at 5 to 10 mg/kg, ip administered for 21 days consecutively by H and E staining based analysis; assay type: organism-based; conditions: in vivo, 504 h, dose 5-10 mg/kg, time 21 day
# [25] = Toxicity in nude BALB/c mouse xenografted with human HL-60 cells assessed as toxic sign in kidney at 5 to 10 mg/kg, ip administered for 21 days consecutively by H and E staining based analysis; assay type: organism-based; conditions: in vivo, 504 h, dose 5-10 mg/kg, time 21 day
# [26] = Toxicity in nude BALB/c mouse xenografted with human HL-60 cells assessed as toxic sign in lung at 5 to 10 mg/kg, ip administered for 21 days consecutively by H and E staining based analysis; assay type: organism-based; conditions: in vivo, 504 h, dose 5-10 mg/kg, time 21 day
# HL-60 [27] = assay: Antiproliferative activity against human HL-60 cells incubated for 48 hrs by CCK8 assay; assay type: functional, cell-based; conditions: HL-60, 48 h
# [28] = Antiproliferative activity against human MOLM16 cells incubated for 48 hrs by CCK8 assay; conditions: MOLM16, 48 h
# MV4-11 = assay: Antiproliferative activity against human MV4-11 cells incubated for 48 hrs by CCK8 assay; assay type: functional, cell-based; conditions: MV4-11, 48 h
# KG-1 = assay: Antiproliferative activity against human KG-1 cells incubated for 48 hrs by CCK8 assay; assay type: functional, cell-based; conditions: KG-1, 48 h
# EOL1 = assay: Antiproliferative activity against human EOL1 cells incubated for 48 hrs by CCK8 assay; assay type: functional, cell-based; conditions: EOL1, 48 h
# HL-60 [29] = assay: Antitumor activity against human HL-60 cells xenografted in nude BALB/c mouse assessed as tumor growth inhibition at 5 mg/kg, ip administered for 21 days consecutively relative to control; assay type: functional; conditions: HL-60, 504 h, time 21 day, read-out: TGI
# [30] = Toxicity in nude BALB/c mouse xenografted with human HL-60 cells assessed as body weight change at 5 mg/kg, ip administered for 21 days consecutively; assay type: organism-based; conditions: in vivo, 504 h, time 21 day
# [31] = Toxicity in nude BALB/c mouse xenografted with human HL-60 cells assessed as toxic sign in heart at 5 mg/kg, ip administered for 21 days consecutively by H and E staining based analysis; assay type: organism-based; conditions: in vivo, 504 h, time 21 day
# [32] = Toxicity in nude BALB/c mouse xenografted with human HL-60 cells assessed as toxic sign in liver at 5 mg/kg, ip administered for 21 days consecutively by H and E staining based analysis; assay type: organism-based; conditions: in vivo, 504 h, time 21 day
# [33] = Toxicity in nude BALB/c mouse xenografted with human HL-60 cells assessed as toxic sign in spleen at 5 mg/kg, ip administered for 21 days consecutively by H and E staining based analysis; assay type: organism-based; conditions: in vivo, 504 h, time 21 day
# [34] = Toxicity in nude BALB/c mouse xenografted with human HL-60 cells assessed as toxic sign in kidney at 5 mg/kg, ip administered for 21 days consecutively by H and E staining based analysis; assay type: organism-based; conditions: in vivo, 504 h, time 21 day
# [35] = Toxicity in nude BALB/c mouse xenografted with human HL-60 cells assessed as toxic sign in lung at 5 mg/kg, ip administered for 21 days consecutively by H and E staining based analysis; assay type: organism-based; conditions: in vivo, 504 h, time 21 day
# Sequence of Phosphatidylinositol 4,5-bisphosphate 3-kinase catalytic subunit gamma isoform (P48736 whole entry, canonical isoform): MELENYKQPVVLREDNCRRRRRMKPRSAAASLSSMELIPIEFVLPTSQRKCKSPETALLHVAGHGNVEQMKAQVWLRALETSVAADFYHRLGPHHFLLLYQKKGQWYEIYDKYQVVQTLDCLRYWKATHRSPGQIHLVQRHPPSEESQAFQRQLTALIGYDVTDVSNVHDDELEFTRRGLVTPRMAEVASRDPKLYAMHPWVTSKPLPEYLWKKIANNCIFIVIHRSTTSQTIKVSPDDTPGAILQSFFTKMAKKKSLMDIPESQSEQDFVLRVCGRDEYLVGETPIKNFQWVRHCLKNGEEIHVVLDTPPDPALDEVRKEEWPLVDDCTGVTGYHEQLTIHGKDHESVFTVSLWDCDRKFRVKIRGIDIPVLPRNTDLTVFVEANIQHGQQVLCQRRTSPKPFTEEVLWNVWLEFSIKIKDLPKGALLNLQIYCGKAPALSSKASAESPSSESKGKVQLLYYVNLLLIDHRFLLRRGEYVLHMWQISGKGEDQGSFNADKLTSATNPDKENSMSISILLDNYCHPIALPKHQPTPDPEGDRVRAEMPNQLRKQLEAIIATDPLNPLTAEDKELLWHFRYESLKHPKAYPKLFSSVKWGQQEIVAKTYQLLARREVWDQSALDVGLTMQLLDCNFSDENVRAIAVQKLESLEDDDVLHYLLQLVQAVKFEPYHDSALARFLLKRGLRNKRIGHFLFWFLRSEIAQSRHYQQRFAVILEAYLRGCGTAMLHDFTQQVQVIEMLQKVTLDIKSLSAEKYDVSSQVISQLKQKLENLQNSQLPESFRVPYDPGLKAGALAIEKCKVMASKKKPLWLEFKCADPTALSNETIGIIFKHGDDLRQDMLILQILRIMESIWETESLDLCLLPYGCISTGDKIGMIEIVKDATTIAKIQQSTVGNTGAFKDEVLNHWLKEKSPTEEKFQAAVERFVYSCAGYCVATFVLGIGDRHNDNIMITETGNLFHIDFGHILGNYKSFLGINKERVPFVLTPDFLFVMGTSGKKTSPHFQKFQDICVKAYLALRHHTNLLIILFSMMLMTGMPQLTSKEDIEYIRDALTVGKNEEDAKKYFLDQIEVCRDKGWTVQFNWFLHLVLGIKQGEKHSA
# Sequence of Phosphatidylinositol 4,5-bisphosphate 3-kinase catalytic subunit alpha isoform (P42336 whole entry, canonical isoform): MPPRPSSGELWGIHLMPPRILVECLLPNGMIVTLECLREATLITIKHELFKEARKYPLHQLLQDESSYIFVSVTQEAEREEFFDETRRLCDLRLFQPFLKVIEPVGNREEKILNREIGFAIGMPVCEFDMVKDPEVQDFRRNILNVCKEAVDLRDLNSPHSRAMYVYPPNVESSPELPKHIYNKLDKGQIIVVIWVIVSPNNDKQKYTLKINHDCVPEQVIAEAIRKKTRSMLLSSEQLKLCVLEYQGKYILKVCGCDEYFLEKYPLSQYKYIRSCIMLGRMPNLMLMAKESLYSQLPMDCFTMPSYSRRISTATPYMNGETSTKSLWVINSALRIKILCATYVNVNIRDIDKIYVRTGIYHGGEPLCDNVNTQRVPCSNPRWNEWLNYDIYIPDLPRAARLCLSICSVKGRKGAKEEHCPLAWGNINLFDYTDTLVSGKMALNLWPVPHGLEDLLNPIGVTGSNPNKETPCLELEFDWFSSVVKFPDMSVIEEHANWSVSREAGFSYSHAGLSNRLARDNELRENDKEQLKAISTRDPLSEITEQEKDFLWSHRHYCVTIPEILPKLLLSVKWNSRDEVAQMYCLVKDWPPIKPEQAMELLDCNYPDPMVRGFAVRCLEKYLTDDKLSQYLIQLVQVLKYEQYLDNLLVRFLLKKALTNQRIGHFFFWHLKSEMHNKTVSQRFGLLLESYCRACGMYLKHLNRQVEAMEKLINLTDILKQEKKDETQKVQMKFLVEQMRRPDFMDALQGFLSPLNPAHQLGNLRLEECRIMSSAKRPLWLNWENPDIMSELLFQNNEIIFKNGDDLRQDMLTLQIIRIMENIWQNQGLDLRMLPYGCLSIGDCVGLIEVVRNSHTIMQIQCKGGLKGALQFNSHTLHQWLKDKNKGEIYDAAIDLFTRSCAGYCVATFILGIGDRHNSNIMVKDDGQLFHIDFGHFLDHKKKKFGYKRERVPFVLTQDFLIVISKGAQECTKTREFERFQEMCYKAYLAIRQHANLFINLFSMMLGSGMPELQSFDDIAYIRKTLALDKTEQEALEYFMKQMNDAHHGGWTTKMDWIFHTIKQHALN
# Sequence of Phosphatidylinositol 4,5-bisphosphate 3-kinase catalytic subunit beta isoform (P42338 whole entry, canonical isoform): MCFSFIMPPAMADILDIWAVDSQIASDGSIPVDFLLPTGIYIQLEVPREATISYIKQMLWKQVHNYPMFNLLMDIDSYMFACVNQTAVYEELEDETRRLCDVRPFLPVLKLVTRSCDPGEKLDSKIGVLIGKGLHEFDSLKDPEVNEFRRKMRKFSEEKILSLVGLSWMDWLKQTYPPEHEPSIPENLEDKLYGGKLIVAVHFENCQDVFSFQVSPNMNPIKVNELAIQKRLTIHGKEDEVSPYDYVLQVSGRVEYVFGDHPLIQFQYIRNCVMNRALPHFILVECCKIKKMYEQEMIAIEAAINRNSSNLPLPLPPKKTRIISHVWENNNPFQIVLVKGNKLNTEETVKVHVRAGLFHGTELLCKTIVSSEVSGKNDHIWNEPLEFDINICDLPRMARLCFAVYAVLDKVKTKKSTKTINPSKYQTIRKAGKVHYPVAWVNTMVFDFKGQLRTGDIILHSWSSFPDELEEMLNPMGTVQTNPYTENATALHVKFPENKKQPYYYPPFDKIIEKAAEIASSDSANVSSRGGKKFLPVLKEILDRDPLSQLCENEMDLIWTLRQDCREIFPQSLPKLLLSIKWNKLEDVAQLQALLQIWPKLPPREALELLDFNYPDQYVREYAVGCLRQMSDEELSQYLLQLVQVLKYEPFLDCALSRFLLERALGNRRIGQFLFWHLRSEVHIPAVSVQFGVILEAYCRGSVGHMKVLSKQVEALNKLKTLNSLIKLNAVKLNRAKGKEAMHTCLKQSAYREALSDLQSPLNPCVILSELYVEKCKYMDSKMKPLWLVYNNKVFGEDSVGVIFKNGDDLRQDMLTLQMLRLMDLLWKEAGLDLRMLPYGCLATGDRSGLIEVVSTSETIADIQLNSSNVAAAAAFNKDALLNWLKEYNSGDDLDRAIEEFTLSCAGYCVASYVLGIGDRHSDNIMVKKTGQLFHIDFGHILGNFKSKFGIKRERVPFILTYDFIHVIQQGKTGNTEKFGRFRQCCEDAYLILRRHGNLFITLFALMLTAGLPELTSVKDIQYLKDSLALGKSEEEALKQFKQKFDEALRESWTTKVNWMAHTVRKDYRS
structure (smiles),measurement,setting,value
O=S(=O)(Nc1cc(-c2cnc3[nH]ncc3c2)cnc1Cl)c1ccccc1,IC50,[1],32.2 nM
O=S(=O)(Nc1cc(-c2cnc3[nH]nc(-c4ccncc4)c3c2)cnc1Cl)c1ccccc1,IC50,[2],0.67 nM
same,IC50,[1],4.26 nM
same,IC50,[3],1.17 nM
same,IC50,[4],4.37 nM
same,IC50,[5],7.37 nM
O=S(=O)(Nc1cc(-c2cnc3[nH]nc(-c4ccccc4)c3c2)cnc1Cl)c1ccccc1,IC50,[2],1.24 nM
same,IC50,[1],2.65 nM
O=S(=O)(Nc1cc(-c2cnc3[nH]nc(-c4ccncc4)c3c2)cnc1Cl)c1ccc(F)cc1,IC50,[3],0.65 nM
same,IC50,[4],1.57 nM
same,IC50,[5],0.65 nM
same,viability at 0.25 µM,HL-60 [6],96.4%
same,viability at 0.5 µM,HL-60 [7],90.4%
same,viability at 1 µM,HL-60 [8],53.5%
same,half-life,[9],137 min
same,clearance,[10],37 mL/min/kg
same,Vd,[11],7.26 L/kg
same,AUC(0-t) at 24 h,[12],898 ng·h/mL
same,AUC(0-inf),[13],903 ng·h/mL
same,MRT inf,[14],35.6 min
same,half-life,[15],269 min
same,Tmax,[16],2.8 h
same,Cmax,[17],15.5 ng/mL
same,AUC(0-t) at 24 h,[18],104 ng·h/mL
same,AUC(0-inf),[19],121 ng·h/mL
same,bioavailability,[20],2.68%
same,Activity,[21],Non-Toxic
same,Activity,[22],Non-Toxic
same,Activity,[23],Non-Toxic
same,Activity,[24],Non-Toxic
same,Activity,[25],Non-Toxic
same,Activity,[26],Non-Toxic
Cn1c(=O)n(-c2ccc(C(C)(C)C#N)cc2)c2c3cc(-c4cnc5ccccc5c4)ccc3ncc21 [DACTOLISIB],IC50,HL-60 [27],510 nM
same,IC50,[28],500 nM
same,IC50,MV4-11,30 nM
same,IC50,KG-1,1310 nM
same,IC50,EOL1,1050 nM
same,inhibition in vivo at 5 mg/kg,HL-60 [29],62%
same,Activity,[30],Non-Toxic
same,Activity,[31],Non-Toxic
same,Activity,[32],Non-Toxic
same,Activity,[33],Non-Toxic
same,Activity,[34],Non-Toxic
same,Activity,[35],Non-Toxic
